In test [1] the target is T1, Francisella tularensis GyrB (ATP binding domain) (Francisella tularensis subsp. tularensis, UniProt Q5NHE7). In words: biochemical.
The target in test [2] is E. coli gyrase A2B2 heterotetramer (Escherichia coli, UniProt P0AES6). Kind of test: Gyrase activity. It is filed as biochemical. The following applies: 50 μM compound, 0.5 μg relaxed pHOT1 DNA, 1 h 37 °C.
Test [3] deals with T1, Francisella tularensis GyrB (ATP binding domain). In words: biochemical. The following applies: 1 h, read-out: decrease of binding of Novo-TRX to GyrB.

Each structure is given as a SMILES string. Where only a bound is given, the exact number is not on record here.

T1 sequence (Q5NHE7 1-805): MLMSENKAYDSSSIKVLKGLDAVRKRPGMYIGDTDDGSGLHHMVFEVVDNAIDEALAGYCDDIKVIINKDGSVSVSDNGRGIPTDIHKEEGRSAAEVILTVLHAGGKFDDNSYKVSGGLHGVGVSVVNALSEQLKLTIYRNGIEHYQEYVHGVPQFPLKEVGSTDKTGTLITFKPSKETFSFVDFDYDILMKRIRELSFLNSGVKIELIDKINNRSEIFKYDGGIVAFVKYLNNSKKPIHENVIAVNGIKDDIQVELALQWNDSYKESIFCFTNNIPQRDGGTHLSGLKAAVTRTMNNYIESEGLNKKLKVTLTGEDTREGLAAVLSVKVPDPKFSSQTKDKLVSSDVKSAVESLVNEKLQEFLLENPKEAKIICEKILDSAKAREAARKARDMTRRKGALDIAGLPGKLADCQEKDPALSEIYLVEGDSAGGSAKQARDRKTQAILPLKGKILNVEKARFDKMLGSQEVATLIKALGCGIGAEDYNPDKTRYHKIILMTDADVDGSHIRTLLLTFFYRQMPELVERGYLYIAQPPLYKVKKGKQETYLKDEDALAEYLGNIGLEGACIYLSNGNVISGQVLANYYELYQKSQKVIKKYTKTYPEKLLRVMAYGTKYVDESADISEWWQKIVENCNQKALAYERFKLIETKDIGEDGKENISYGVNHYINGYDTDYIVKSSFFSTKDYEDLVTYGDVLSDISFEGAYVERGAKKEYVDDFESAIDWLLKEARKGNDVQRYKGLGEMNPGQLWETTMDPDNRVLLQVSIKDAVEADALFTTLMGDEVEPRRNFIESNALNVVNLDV

By IC50 is commonly meant the concentration that inhibits the measured activity by half. Take `COc1cccc2c1C(=O)c1c(O)c3c(c(O)c1C2=O)C[C@@](O)(C(=O)CO)C[C@@H]3O[C@H]1C[C@H](N)[C@@H](O)[C@H](C)O1` [epirubicin]: in test [1], the IC50 worked out at 1270 nM. The “inhibition of supercoiling of relaxed DNA” value (shortened to “inhibition … of relaxed DNA”) in test [2] is reported as “inhibit supercoiling to the level of the no-gyrase control”.

`CCNC(=O)Nc1nc2cc(-c3cccnc3)cc(-c3ccccn3)c2[nH]1` [Vertex-13, N-ethyl-N′-[7-(2-pyridinyl)-5-(3-pyridinyl)-1H-benzimidazol-2-yl]-urea]: in test [1], the IC50 worked out at 393 nM and the “potency relative to novobiocin in the F. tularensis system (fold less potent)” value is reported as “approximately 10 fold”.

As for `COc1cccc2c1C(=O)c1c(O)c3c(c(O)c1C2=O)C[C@@](O)(C(=O)CO)C[C@@H]3O[C@H]1C[C@H](N)[C@H](O)[C@H](C)O1` [doxorubicin], the IC50 in test [1] worked out at 310 nM. For the same molecule, in test [2], the “inhibition … of relaxed DNA” value is “inhibit supercoiling to the level of the no-gyrase control”. With `COc1cccc2c1C(=O)c1c(O)c3c(c(O)c1C2=O)C[C@@](O)(C(C)=O)C[C@@H]3O[C@H]1C[C@H](N)[C@H](O)[C@H](C)O1` [daunorubicin], the half-inhibitory concentration (IC50) in test [1] is 1460 nM. In addition, in test [2], the “inhibition … of relaxed DNA” value is “less clear”. For `CC(=O)[C@]1(O)Cc2c(O)c3c(c(O)c2[C@@H](O[C@H]2C[C@H](N)[C@H](O)[C@H](C)O2)C1)C(=O)c1ccccc1C3=O` [idarubicin] the same measures were 1580 nM and “less clear”. Take `CO[C@@H]1[C@@H](OC(N)=O)[C@@H](O)[C@H](Oc2ccc3c(O)c(NC(=O)c4ccc(O)c(CC=C(C)C)c4)c(=O)oc3c2C)OC1(C)C` [novobiocin]: in test [3], the inhibition at 10 µM was greater than 40%.

The values are drawn from article PMC3176662 (Journal of biomolecular screening, 2011).
